What was measured:
[1] = biological target: 1-phosphatidylinositol 3-phosphate 5-kinase (Homo sapiens) (UniProt Q9Y2I7); conditions: Compound concentration 1000.0 nM
[2] = biological target: Muscarinic acetylcholine receptor M3 (Homo sapiens) (UniProt P20309); conditions: Compound concentration 10.0 uM
[3] = biological target: Phosphatidylinositol 4,5-bisphosphate 3-kinase catalytic subunit beta isoform (Homo sapiens) (UniProt P42338); conditions: Compound concentration 1000.0 nM
[4] = biological target: T1, Phosphatidylinositol 3-kinase C2 domain-containing subunit gamma (Homo sapiens) (UniProt O75747); conditions: Compound concentration 1000.0 nM
T1 sequence (whole entry): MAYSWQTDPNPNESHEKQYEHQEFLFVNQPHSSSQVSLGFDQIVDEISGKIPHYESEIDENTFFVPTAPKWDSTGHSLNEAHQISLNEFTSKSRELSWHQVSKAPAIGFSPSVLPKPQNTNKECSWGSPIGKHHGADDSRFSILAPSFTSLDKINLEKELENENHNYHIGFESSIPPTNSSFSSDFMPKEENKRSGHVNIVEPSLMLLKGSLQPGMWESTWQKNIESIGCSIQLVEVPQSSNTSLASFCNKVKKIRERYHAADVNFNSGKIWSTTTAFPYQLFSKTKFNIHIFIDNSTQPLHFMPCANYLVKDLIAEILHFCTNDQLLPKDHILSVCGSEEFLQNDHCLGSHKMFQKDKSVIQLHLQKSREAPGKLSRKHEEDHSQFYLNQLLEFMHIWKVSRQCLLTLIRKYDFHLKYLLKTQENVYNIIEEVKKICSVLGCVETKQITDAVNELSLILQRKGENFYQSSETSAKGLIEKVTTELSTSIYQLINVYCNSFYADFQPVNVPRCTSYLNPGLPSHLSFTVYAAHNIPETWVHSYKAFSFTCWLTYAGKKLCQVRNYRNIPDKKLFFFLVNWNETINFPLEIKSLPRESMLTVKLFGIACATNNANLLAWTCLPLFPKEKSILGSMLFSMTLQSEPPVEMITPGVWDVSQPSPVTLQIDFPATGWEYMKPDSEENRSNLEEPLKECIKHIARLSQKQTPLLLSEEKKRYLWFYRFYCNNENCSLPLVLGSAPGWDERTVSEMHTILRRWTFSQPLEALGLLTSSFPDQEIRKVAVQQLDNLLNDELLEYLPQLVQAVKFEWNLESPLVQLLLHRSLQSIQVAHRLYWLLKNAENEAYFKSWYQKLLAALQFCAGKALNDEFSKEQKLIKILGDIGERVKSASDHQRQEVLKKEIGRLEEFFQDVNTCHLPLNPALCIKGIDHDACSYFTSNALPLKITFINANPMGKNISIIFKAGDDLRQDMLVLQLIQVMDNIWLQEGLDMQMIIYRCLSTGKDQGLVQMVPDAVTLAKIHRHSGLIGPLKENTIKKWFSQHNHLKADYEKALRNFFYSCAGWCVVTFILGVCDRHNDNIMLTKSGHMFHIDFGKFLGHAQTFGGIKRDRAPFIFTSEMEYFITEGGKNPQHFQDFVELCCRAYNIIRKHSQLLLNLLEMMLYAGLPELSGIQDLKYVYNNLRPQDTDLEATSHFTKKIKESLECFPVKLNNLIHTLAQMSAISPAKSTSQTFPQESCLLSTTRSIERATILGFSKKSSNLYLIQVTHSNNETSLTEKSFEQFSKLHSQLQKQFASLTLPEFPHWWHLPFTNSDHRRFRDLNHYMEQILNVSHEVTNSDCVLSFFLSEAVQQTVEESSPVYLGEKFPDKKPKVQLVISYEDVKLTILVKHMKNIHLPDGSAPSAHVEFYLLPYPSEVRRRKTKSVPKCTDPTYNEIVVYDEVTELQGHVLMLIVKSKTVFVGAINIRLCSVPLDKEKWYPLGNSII

[5] = biological target: Cyclin-dependent kinase 7 (Homo sapiens) (UniProt P50613); conditions: Compound concentration 1000.0 nM
[6] = biological target: T2, Serine/threonine-protein kinase D1 (Homo sapiens) (UniProt Q15139); conditions: Compound concentration 1000.0 nM
T2 sequence (whole entry): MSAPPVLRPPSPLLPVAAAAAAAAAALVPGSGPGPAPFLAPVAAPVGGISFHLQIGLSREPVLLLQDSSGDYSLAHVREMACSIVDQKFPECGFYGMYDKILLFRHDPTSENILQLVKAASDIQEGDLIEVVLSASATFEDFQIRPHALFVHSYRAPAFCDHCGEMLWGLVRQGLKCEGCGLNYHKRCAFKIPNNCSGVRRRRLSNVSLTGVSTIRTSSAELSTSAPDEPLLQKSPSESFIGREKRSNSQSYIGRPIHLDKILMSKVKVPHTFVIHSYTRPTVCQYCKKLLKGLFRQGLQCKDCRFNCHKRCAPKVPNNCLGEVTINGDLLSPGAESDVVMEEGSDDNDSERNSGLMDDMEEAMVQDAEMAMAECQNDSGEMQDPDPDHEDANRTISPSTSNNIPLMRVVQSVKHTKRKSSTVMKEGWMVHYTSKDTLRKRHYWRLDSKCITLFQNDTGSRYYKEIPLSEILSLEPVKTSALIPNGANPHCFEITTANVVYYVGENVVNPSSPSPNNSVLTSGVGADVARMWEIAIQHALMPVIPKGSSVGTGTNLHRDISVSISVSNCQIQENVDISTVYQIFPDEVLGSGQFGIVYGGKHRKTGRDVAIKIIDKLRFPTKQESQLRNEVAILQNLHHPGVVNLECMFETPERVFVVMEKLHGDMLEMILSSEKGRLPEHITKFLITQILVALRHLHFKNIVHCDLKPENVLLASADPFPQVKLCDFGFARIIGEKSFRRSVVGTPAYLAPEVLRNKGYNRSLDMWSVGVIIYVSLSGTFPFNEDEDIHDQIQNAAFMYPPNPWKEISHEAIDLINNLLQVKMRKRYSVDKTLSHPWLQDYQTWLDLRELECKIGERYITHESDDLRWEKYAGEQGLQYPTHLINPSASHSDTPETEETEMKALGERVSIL

[7] = biological target: 5'-AMP-activated protein kinase catalytic subunit alpha-2 (Homo sapiens) (UniProt P54646); conditions: Compound concentration 1000.0 nM
[8] = biological target: Non-receptor tyrosine-protein kinase TYK2 (Homo sapiens) (UniProt P29597); conditions: Compound concentration 1000.0 nM
[9] = biological target: Ribosomal protein S6 kinase alpha-5 (Homo sapiens) (UniProt O75582); conditions: Compound concentration 1000.0 nM
Ribosomal protein S6 kinase alpha-5 (Homo sapiens), sequence (O75582 whole entry, looked up): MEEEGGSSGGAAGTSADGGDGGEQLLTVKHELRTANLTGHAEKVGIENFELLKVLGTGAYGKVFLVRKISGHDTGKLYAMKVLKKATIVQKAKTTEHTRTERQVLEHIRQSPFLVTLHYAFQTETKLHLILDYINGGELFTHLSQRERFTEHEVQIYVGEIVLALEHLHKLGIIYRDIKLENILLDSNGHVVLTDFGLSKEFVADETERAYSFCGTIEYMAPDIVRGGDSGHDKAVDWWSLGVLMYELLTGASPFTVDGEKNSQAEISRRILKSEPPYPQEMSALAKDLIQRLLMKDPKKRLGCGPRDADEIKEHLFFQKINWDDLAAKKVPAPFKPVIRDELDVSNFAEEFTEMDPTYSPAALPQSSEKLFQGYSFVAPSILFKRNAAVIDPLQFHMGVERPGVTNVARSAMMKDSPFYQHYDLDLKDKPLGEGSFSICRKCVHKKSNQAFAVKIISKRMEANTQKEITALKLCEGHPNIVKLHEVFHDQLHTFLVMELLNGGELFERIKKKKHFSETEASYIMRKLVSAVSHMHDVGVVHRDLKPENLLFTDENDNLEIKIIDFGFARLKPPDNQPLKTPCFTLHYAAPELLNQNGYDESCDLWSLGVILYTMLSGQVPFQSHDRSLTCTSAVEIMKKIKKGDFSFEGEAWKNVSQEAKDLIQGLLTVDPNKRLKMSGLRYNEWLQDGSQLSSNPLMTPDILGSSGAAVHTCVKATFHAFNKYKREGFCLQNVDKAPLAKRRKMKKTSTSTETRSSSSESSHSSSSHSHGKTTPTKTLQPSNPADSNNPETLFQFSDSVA

Muscarinic acetylcholine receptor M3 (Homo sapiens), sequence (P20309 whole entry, looked up, canonical isoform): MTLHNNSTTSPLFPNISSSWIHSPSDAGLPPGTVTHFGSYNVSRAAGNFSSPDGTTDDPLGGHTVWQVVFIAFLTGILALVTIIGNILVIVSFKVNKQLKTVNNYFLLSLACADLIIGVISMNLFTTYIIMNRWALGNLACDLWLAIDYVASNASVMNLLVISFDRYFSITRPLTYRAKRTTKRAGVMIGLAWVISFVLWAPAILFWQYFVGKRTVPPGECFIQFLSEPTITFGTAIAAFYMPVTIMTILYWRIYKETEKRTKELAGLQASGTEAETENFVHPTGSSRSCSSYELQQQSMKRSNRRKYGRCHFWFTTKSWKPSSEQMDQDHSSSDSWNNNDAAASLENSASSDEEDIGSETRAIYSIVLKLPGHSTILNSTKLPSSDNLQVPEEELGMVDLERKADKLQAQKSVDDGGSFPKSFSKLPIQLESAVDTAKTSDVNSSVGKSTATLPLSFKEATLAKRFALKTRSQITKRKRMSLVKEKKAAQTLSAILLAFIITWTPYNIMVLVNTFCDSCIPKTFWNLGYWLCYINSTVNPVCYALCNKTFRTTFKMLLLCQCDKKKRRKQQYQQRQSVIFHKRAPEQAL
1-phosphatidylinositol 3-phosphate 5-kinase (Homo sapiens), sequence (Q9Y2I7 whole entry): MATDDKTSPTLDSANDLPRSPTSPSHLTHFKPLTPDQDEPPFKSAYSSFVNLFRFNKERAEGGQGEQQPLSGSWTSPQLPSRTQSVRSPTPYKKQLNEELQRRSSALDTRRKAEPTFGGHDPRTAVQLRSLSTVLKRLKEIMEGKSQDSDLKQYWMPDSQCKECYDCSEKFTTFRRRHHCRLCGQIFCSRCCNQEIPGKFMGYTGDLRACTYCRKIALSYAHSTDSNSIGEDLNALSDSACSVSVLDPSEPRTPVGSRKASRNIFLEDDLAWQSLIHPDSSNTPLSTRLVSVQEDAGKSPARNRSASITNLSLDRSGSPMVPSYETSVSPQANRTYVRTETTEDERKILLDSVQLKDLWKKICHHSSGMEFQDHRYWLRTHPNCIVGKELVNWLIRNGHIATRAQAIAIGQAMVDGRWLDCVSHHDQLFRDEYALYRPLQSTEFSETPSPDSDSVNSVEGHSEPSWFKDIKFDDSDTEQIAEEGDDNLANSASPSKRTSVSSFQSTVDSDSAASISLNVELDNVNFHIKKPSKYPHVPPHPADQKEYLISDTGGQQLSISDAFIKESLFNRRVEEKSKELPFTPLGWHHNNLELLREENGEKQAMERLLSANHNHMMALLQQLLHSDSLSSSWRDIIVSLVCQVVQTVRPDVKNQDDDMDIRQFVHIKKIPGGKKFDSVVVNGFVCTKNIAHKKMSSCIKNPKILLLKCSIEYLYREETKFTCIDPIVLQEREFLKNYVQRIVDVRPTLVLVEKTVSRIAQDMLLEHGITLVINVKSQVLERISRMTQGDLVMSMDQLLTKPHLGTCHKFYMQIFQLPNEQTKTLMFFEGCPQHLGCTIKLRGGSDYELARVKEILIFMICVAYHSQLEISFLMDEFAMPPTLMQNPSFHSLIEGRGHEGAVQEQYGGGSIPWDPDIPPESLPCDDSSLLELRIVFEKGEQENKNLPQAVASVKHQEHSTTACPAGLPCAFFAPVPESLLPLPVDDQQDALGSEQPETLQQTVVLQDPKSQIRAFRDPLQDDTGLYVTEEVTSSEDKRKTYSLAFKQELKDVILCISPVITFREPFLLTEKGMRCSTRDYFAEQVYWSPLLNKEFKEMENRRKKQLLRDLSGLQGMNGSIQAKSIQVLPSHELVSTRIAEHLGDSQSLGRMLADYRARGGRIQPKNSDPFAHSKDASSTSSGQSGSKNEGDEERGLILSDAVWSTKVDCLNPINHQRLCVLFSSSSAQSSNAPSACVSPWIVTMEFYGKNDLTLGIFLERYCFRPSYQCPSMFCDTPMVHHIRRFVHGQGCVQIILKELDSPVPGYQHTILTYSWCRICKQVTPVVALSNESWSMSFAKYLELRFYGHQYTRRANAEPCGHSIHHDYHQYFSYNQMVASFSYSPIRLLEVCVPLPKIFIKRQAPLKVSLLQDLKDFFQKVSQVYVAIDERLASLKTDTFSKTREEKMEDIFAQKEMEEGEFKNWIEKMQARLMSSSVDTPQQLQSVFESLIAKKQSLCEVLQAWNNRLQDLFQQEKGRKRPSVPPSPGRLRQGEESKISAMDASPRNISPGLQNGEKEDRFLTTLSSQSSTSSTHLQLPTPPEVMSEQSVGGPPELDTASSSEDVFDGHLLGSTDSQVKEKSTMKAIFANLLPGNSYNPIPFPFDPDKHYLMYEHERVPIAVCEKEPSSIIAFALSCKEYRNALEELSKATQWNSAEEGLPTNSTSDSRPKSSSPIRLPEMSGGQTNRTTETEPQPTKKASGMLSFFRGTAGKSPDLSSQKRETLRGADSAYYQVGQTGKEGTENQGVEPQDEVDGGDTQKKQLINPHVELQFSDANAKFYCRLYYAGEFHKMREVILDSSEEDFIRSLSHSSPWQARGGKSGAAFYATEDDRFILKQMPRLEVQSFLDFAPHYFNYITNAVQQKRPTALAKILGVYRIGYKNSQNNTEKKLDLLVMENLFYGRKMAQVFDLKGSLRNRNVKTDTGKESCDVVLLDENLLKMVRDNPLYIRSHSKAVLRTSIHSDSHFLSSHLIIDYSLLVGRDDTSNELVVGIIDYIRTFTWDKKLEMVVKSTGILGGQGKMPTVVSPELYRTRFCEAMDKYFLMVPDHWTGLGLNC
Phosphatidylinositol 4,5-bisphosphate 3-kinase catalytic subunit beta isoform (Homo sapiens), sequence (P42338 whole entry, looked up, the tested form may be a part, canonical isoform): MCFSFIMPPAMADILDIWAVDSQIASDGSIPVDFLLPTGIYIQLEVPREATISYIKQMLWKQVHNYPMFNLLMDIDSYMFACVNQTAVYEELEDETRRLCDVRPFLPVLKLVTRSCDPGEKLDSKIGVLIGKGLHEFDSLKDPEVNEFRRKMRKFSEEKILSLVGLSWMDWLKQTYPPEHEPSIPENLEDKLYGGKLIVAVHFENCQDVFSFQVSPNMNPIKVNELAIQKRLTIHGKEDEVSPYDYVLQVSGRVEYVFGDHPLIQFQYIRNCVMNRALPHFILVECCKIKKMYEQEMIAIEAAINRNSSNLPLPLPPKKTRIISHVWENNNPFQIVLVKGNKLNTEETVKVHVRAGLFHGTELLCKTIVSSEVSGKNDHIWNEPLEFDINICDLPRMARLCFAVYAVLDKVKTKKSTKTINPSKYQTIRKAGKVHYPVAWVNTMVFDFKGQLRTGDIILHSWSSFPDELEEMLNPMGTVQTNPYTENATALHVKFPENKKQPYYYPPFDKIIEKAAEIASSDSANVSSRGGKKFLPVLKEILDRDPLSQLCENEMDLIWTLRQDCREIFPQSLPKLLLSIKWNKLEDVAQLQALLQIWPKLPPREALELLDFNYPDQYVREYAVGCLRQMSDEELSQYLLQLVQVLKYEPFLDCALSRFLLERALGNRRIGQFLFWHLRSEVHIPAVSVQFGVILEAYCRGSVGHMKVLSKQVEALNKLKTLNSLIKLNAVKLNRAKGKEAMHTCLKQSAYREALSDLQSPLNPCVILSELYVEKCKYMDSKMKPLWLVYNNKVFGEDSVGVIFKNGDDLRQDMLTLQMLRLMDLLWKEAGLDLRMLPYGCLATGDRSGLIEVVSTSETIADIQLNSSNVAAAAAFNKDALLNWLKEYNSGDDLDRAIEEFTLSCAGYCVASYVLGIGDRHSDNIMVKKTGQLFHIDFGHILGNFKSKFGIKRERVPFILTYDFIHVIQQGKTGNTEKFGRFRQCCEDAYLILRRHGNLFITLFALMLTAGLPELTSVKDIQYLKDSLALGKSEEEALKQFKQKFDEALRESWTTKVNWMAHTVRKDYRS
Cyclin-dependent kinase 7 (Homo sapiens), sequence (P50613 whole entry): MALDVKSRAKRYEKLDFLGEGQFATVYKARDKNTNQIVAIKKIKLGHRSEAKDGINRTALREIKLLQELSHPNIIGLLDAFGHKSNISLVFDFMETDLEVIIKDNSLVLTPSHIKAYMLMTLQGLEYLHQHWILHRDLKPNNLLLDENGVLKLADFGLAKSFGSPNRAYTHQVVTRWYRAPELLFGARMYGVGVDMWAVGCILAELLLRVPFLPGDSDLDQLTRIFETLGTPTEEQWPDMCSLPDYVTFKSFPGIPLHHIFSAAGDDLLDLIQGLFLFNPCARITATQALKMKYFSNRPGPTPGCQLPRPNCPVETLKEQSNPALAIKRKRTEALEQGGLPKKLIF

Cc1nc(C2CCN(C(=O)c3ccc(OC(F)(F)F)cc3N)CC2)c2ncc(N3CCN(C)CC3)cc2n1 [BAY-693]
inactive: residual activity [1] 100% | inhibition [2] 18.6% | residual activity [3] 94% | residual activity [4] 100% | residual activity [5] 100% | residual activity [6] 79% | residual activity [7] 100% | residual activity [8] 88% | residual activity [9] 100%

CN1CCN(c2cnc3c(C4CCN(C(=O)c5ccc(OC(F)(F)F)cc5N)CC4)ncnc3c2)CC1 [BAY-885]
inactive: residual activity [1] 98% | inhibition [2] 27.1% | residual activity [3] 100% | residual activity [4] 100% | residual activity [5] 89% | residual activity [6] 85% | residual activity [7] 100% | residual activity [8] 100% | residual activity [9] 100%

Source: ChEMBL document CHEMBL4507268 (2021)
